{
  "source": "patent US12415926B2",
  "about": "“Small tunable fluorophores for the detection and imaging of biomolecules” (The University Court of the University of Edinburgh, priority 2019, dated 2025)",
  "key": {"GLUT2": {"tested_on": "GLUT2", "experiment": "Zebrafish in vivo imaging of glucose uptake", "conditions": "28 hpf, 50 pmol into yolk sac", "protocol": "(§1) A-F) Green (GLUT4-EGFP), red (SCOTfluor-89, 100 μM) and merged (Hoechst 33342) images of HeLa cells without additional glucose (A-C) and in media containing 5 mM D-glucose ([…]). White arrows identify co-localization of GLUT4-EGFP and SCOTfluor-89. Scale bar: 10 μm. G) Fluorescence emission spectra of BFP (blue), GFP (green) and SCOTfluor-89 (red). H) Insulin-dependent (100 nM, 1 h) uptake of SCOTfluor-89 (red, 100 μM) in GLUT4-EGFP HeLa cells. I) Chemical structures of compounds SCOTfluor-54 and SCOTfluor-89. J) In vivo images of the head in zebrafish embryos (28 hpf) after injection of SCOTfluor-54 or SCOTfluor-89 (both 50 pmol) to the yolk sac (blue arrowheads). Fluorescence images were taken of wildtype zebrafish or zebrafish that had been injected at one cell stage with 4.2 ng anti-sense glut2 morpholino. Yellow arrows point at midbrain and hindbrain regions within the zebrafish embryo heads. Scale bar: 100 μm.\nAnti-sense glut2 morpholino (5′-ATGACCTGCAGAC AACAAGGACACC-3′)^1 was reconstituted to 1 mM in nuclease-free H2O and injected at 4.2 ng/embryo into the one-cell stage. Embryos were maintained at 28.5° C., according to standard protocols. Wild-type controls and glut2 morphants were injected into the yolk sac at 28 hours post fertilization (hpf) with compound SCOTfluor-89 (50 pmol) and 1 mg mL^−1 10,000 MW Dextran Cascade Blue® (ThermoFisher), then embedded in 1% low-melting point agarose for live imaging. Live imaging was performed 30 min post-injection on an inverted Leica SP8 confocal microscope using a HC PL APO CS2 10×/0.40 dry lens. Dextran was excited at 405 nm laser and detected at 415-480 nm, while compound SCOTfluor-89 was excited at 488 nm and detected at 498-600 nm.\nIt was also examined whether SCOTfluors could be used to image in vivo tissues with high metabolic activity. Fluorescent deoxyglucose tracers can monitor glucose uptake in metabo-lically-active cells and tissues, although few have been reported for in vivo use. Herein synthesized compound SCOTfluor-89 was synthetized as an in vivo-compatible glucose analog by nucleophilic substitution of nitrobenzoselenadiazole with 2-deoxyglucosamine. […] The transport of SCOTfluor-89 in HeLa cells transfected with EGFP-tagged GLUT4, the main glucose transporter in mammalian cells was examined. […] Finally, compound SCOTfluor-89 was tested in vivo in zebrafish embryos to visualize regions of high glucose uptake. […] We confirmed that the staining was dependent on the active transport of SCOTfluor-89 through GLUT2 by examining glut2 morpholino-injected zebrafish, which have reduced levels of GLUT2."}, "HeLa cells": {"tested_on": "HeLa cells", "experiment": "Cytotoxicity assay in HeLa cells", "conditions": "100 μM and 75 μM (1% DMSO), 4 h at 37° C.", "quoted_text": "Cell viabilities were normalized to incubation in cell culture media under the same experimental conditions. A solution of 40% DMSO in cell culture media was used as a known cytotoxic positive control. Values represented as means±s.e.m. (n=3)."}, "[1]": {"experiment": "Optical properties of SCOTfluors (absorbance, emission, extinction coefficient, quantum yield, solvatochromism)", "format": "physicochemical", "protocol": "All compounds were dissolved in different organic solvents, including toluene, chloroform, tetrahydrofuran, ethanol, DMSO and water (final concentrations: 10-50 μM). Fluorescence spectra were acquired on a spectrophotometer upon excitation at their maxima absorbance wavelengths.\nThe optical properties of SCOTfluor-80, 79, 78, 76 and 81 were compared with the properties of the original NBD."}, "GLUT4": {"biological_target": "T1, GLUT4 (Homo sapiens, UniProt P14672)", "T1 construct": "PYP (photoactive yellow protein tag); HA; expressed in transfected cells; host or cells: HeLa", "T1 sequence (P14672 1-509)": "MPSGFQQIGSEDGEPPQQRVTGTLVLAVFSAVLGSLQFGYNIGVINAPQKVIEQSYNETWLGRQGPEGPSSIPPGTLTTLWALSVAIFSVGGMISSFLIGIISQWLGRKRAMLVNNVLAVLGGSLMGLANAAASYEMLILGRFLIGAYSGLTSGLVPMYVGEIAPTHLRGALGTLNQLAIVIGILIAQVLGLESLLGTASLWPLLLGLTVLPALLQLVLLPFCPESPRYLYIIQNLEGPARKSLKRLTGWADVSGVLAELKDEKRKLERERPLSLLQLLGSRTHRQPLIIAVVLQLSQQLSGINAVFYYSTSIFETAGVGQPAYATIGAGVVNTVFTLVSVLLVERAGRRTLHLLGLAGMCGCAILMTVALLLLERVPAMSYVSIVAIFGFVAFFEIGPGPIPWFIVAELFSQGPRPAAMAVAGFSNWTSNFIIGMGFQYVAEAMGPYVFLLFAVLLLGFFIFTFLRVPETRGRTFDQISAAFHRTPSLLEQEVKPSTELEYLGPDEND", "experiment": "Uptake in GLUT4-EGFP transfected HeLa cells (fluorescence microscopy)", "format": "cell-based", "conditions": "100 μM", "protocol": "as §1\n(§2) A549 and HeLa cells were obtained from LGC Standards and cultured in Dulbecco's modified Eagle's medium (DMEM) supplemented with 10% FBS, 100 U mL^−1 penicillin and 0.1 mg mL^−1 streptomycin. For transfection experiments, HeLa cells were transfected with pcDNA-PYP-GLUT4-HA-EGFP. Amplification of plasmid-DNA was performed by transformation of competent E. coli DH5a, followed by isolation of pcDNA-PYP-GLUT4-HA-EGFP using GeneJet Plasmid Miniprep kit (ThermoFisher) according to the manufacturer's instructions. Prior to transfection, pcDNA concentration was determined using NanoDrop. Transfection of HeLa cells was performed according to manufacturer's protocol with 1 μg pcDNA-PYP-GLUT4-HA-EGFP using Lipofectamine 3000. Non-transfected as well as transfected cells were maintained at 37° C. and 5% CO2 throughout the imaging experiments.\nConfocal fluorescence microscopy was performed on a confocal Leica SP5 or a spinning disk microscope with excitation at 488 nm (ER Tracker, LysoTracker, EGFP & SCOTfluor-89), 561 nm (SCOTfluor-101) and 405 nm (Hoechst 33342). […]"}, "A549 cells": {"tested_on": "A549 cells", "experiment": "Time-lapse confocal microscopy co-localization with ER and lysosome markers", "format": "cell-based, human", "conditions": "50 μM", "protocol": "C) Time-lapse confocal microscopy images of A549 cells treated with SCOTfluor-101 (50 μM, red), LysoTracker Blue (magenta) and ER Tracker Green (green) after 15 min (co-localization: white arrows) and 3 h (co-localization: yellow arrows). Total co-localization coefficients (R) were determined using ImageJ. Scale bar: 15 μm.\nas §2\nConfocal fluorescence microscopy was performed on a confocal Leica SP5 or a spinning disk microscope with excitation at 488 nm (ER Tracker, LysoTracker, EGFP & SCOTfluor-89), 561 nm (SCOTfluor-101) and 405 nm (Hoechst 33342). Prior to time-lapse imaging and imaging of HeLa cells, cells were incubated in Krebs-Ringer bicarbonate buffer (KRB) (129 mM NaCl, 4.7 mM KCl, 1.2 mM KH2PO4, 5 mM NaHCO3, 10 mM HEPES; 2.5 mM CaCl2, 1.2 mM MgCl2 and 0.2% BSA, pH 7.4) at 37° C. for 3 h. When appropriate, HeLa cells were washed and imaged in KRB with 1 μM Hoechst 33342 at 37° C., 5% CO2.\nThen, the properties of SCOTfluors for imaging the trafficking of essential metabolites under physiological conditions. […] This property was exploited to visualize the recycling of ceramide SCOTfluor-101 in real time in human A549 cells using fluorescence confocal microscopy. […]"}, "[2]": {"experiment": "Emission of SCOTfluor-101 in PBS/water and in liposomes", "format": "physicochemical"}, "[3]": {"conditions": "glut2 morpholino-injected zebrafish embryos"}},
  "data": [
    {"compound": "CCN(CC)c1ccc([N+](=O)[O-])c2n[se]nc12", "note": "[SCOTfluor-54]", "values": [
      {"measurement": "in vivo fluorescence staining", "setting": "GLUT2; [3]", "result": "no tissue-specific staining"},
      {"measurement": "in vivo fluorescence staining", "setting": "GLUT2; wildtype zebrafish embryos", "result": "no tissue-specific staining"}
    ]},
    {"compound": "CCCNc1ccc([N+](=O)[O-])c2n[se]nc12", "note": "[SCOTfluor-76]", "values": [
      {"measurement": "cytotoxicity (cell viability)", "setting": "HeLa cells", "result": "no significant cytotoxicity"},
      {"measurement": "Φ", "setting": "[1]", "result": 0.20},
      {"measurement": "ε", "setting": "[1]", "result": "16,300 M^−1cm^−1"},
      {"measurement": "λabs.", "setting": "[1]", "result": 510, "unit": "nm"},
      {"measurement": "λem.", "setting": "[1]", "result": 606, "unit": "nm"}
    ]},
    {"compound": "CCCNc1ccc([N+](=O)[O-])c2nsnc12", "note": "[SCOTfluor-78]", "values": [
      {"measurement": "Φ", "setting": "[1]", "result": 0.54},
      {"measurement": "ε", "setting": "[1]", "result": "14,600 M^−1cm^−1"},
      {"measurement": "λabs.", "setting": "[1]", "result": 476, "unit": "nm"},
      {"measurement": "λem.", "setting": "[1]", "result": 548, "unit": "nm"}
    ]},
    {"compound": "CCCNc1ccc([N+](=O)[O-])c2n[nH]nc12", "note": "[SCOTfluor-79]", "values": [
      {"measurement": "Φ", "setting": "[1]", "result": "<0.01"},
      {"measurement": "ε", "setting": "[1]", "result": "37,300 M^−1cm^−1"},
      {"measurement": "λabs.", "setting": "[1]", "result": 420, "unit": "nm"},
      {"measurement": "λem.", "setting": "[1]", "result": 460, "unit": "nm"}
    ]},
    {"compound": "CCCNc1ccc([N+](=O)[O-])c2c1=NC(C)(C)N=2", "note": "[SCOTfluor-80]", "values": [
      {"measurement": "Φ", "setting": "[1]", "result": 0.09},
      {"measurement": "ε", "setting": "[1]", "result": "27,300 M^−1cm^−1"},
      {"measurement": "λabs.", "setting": "[1]", "result": 564, "unit": "nm"},
      {"measurement": "λem.", "setting": "[1]", "result": 650, "unit": "nm"}
    ]},
    {"compound": "CCCNc1ccc([N+](=O)[O-])c2c1=NC1(CCCCC1)N=2", "note": "[SCOTfluor-81]", "values": [
      {"measurement": "cytotoxicity (cell viability)", "setting": "HeLa cells", "result": "no significant cytotoxicity"},
      {"measurement": "Φ", "setting": "[1]", "result": 0.11},
      {"measurement": "ε", "setting": "[1]", "result": "28,300 M^−1cm^−1"},
      {"measurement": "λabs.", "setting": "[1]", "result": 546, "unit": "nm"},
      {"measurement": "λem.", "setting": "[1]", "result": 650, "unit": "nm"}
    ]},
    {"compound": "O=[N+]([O-])c1ccc(N[C@H]2C(O)O[C@H](CO)[C@@H](O)[C@@H]2O)c2n[se]nc12", "note": "(stereo partly drawn) [SCOTfluor-89, (3R,4R,5S,6R)-6-(hydroxymethyl)-3-((7-nitrobenzo[c][1,2,5]selenadiazol-4-yl)amino)tetrahydro-2H-pyran-2,4,5-triol]", "values": [
      {"measurement": "cytotoxicity (cell viability)", "setting": "HeLa cells", "result": "no significant cytotoxicity"},
      {"measurement": "in vivo fluorescence staining", "setting": "GLUT2; [3]", "result": "much weaker fluorescence"},
      {"measurement": "in vivo fluorescence staining", "setting": "GLUT2; wildtype zebrafish embryos", "result": "bright red fluorescence staining in regions of the developing brain"},
      {"measurement": "transport by GLUT4", "setting": "GLUT4", "result": "functional substrate of GLUT4"},
      {"measurement": "uptake under competition with excess glucose", "setting": "GLUT4; 5 mM D-glucose", "result": "blocked"},
      {"measurement": "uptake after pre-treating with insulin", "setting": "GLUT4; insulin 100 nM, 1 h", "result": "increased"},
      {"measurement": "Stokes shift", "setting": "[1]", "result": 115, "unit": "nm"},
      {"measurement": "emission", "setting": "[1]", "result": "around 605 nm"}
    ]},
    {"compound": "CCCCCCCCCCCCC/C=C/[C@@H](O)[C@H](CO)NC(=O)CCCCCNc1ccc([N+](=O)[O-])c2c1=NC(C)(C)N=2", "note": "[SCOTfluor-101, N-((2S,3R,E)-1,3-dihydroxyoctadec-4-en-2-yl)-6-((2,2-dimethyl-7-nitro-2H-benzo[d]imidazol-4-yl)amino)hexanamide]", "values": [
      {"measurement": "co-localization (R) with ER Tracker Green", "setting": "A549 cells; 15 min", "result": 91, "unit": "%"},
      {"measurement": "co-localization (R) with LysoTracker Blue", "setting": "A549 cells; 15 min", "result": 26, "unit": "%"},
      {"measurement": "co-localization (R) with LysoTracker Blue", "setting": "A549 cells; after 3 h", "result": 75, "unit": "%"},
      {"measurement": "increase in emission on incubation with liposomes", "setting": "[2]; phosphatidylcholine:cholesterol (7:1) liposomes vs PBS", "result": "over 15 fold"},
      {"measurement": "aggregation in water", "setting": "[2]; water", "result": "minimal aggregation"},
      {"measurement": "cytotoxicity (cell viability)", "setting": "HeLa cells", "result": "no significant cytotoxicity"},
      {"measurement": "emission", "setting": "[1]", "result": "> 660", "unit": "nm"}
    ]},
    {"compound": "Nitrobenzodioxazole [NBD, reference compound]", "values": [
      {"measurement": "Φ", "setting": "[1]", "result": 0.55},
      {"measurement": "ε", "setting": "[1]", "result": "15,400 M^−1cm^−1"},
      {"measurement": "λabs.", "setting": "[1]", "result": 486, "unit": "nm"},
      {"measurement": "λem.", "setting": "[1]", "result": 542, "unit": "nm"}
    ]}
  ]
}
